This is an account of results in patent EP2140864A2 (H. Lundbeck A/S, priority 2001, dated 2002).

The Ki is a measure of affinity in units of concentration, obtained from inhibition or displacement.

A value given as a limit tells only on which side of the number the result lay.

The target of assay [1] is T1, rat D3 receptors (Rattus norvegicus, UniProt P19020).
T1 construct: purchased BioSignal, Inc. (Montreal, Canada)
Kind of assay: Radioligand binding, dopamine D3 receptor. The settings on record: for Ki: Table 9, read-out: rD3 Ki; for selectivity ratio rD3: Table 10, Ki rD3 divided by Ki hGAL3. From the text: (§1) Other receptors: Cell membranes expressing human dopamine D1, D2, D4 and rat D3 receptors were purchased through BioSignal, Inc. (Montreal, Canada). Binding assays using the histamine H1 receptor; dopamine receptors; and α1A, α1E, and α2 adrenergic receptors may be carried out according to the procedures described in U.S. Patent No. 5,780,485, the disclosure of which is hereby incorporated by reference in its entirety into this application. Binding assays using the dopamine D5 receptor may be carried out according to the procedures described in U.S. Patent No. 5,882,855, the disclosure of which is hereby incorporated by reference in its entirety into this application. Binding assays for the human α1D adrenergic receptor may be carried out according to the procedures described in U.S. Patent No. 6,156,518, the disclosure of which is hereby incorporated by reference in its entirety into this application.
(§2) Binding data were analyzed using nonlinear regression and statistical techniques available in the GraphPAD Prism package (San Diego, CA). Enzymatic assay data were derived from a standard curve of reference compound data.

Assay [2] deals with T2, human 5HT1A receptor (Homo sapiens, UniProt P08908).
T2 construct: expressed in transfected cells; host or cells: COS-7 cells, transient (pCEXV-3 vector)
T2 sequence (P08908 1-422): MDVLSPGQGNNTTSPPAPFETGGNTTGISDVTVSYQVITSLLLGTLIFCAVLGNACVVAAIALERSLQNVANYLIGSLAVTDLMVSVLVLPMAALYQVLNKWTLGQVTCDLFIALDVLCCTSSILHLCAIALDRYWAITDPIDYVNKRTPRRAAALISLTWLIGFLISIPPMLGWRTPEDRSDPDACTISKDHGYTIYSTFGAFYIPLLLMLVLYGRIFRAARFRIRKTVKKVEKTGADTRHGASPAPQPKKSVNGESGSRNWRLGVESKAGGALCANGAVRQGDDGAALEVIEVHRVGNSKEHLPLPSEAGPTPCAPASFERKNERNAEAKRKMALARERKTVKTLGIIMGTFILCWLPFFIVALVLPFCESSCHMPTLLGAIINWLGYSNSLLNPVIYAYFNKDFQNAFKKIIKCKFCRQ
Nature of the assay: Radioligand binding, 5-HT1A receptor (3H-8-OH-DPAT). The settings on record: for Ki: Table 7, read-out: h5HT1A Ki; for selectivity ratio h5HT1A: Table 8, Ki h5HT1A divided by Ki hGAL3. Here is the method:
5-HT1A Receptor: The cDNA corresponding to the 5-HT1A receptor open reading frames and variable non-coding 5'-and 3'-regions, was cloned into the eukaryotic expression vector pCEXV-3. These constructs were transfected transiently into COS-7 cells by the DEAE-dextran method (Cullen, 1987), and harvested after 72 hours. Radioligand binding assays were performed as described above for the 5-HT2A receptor, except that ^3H-8-OH-DPAT was used as the radioligand and nonspecific binding was determined by the addition of 10 µM mianserin.
as §2

For assay [3], the target named is T3, human α2B adrenoceptor (Homo sapiens, UniProt P18089).
T3 construct: expressed in transfected cells
T3 sequence (P18089 1-450): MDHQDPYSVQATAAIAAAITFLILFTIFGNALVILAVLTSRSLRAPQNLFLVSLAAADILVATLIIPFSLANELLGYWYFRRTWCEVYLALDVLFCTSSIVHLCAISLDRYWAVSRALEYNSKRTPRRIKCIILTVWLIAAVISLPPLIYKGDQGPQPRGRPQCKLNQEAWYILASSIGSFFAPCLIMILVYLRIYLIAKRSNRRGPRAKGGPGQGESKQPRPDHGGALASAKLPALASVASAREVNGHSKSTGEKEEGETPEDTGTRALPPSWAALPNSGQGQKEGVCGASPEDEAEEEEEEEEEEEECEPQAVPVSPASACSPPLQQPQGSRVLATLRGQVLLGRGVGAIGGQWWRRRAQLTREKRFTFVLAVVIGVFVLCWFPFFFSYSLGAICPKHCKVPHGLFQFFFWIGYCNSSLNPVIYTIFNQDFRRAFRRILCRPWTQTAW
Kind of assay: Radioligand binding, α2B adrenergic receptor. The note with it: for Ki: Table 9, read-out: hα2B Ki; for selectivity ratio hα2B: Table 10, Ki hα2B divided by Ki hGAL3.
Description: as §1, §2

Assay [4] deals with T4, human 5HT1F (Homo sapiens, UniProt P30939).
T4 construct: expressed in transfected cells
T4 sequence (P30939 1-366): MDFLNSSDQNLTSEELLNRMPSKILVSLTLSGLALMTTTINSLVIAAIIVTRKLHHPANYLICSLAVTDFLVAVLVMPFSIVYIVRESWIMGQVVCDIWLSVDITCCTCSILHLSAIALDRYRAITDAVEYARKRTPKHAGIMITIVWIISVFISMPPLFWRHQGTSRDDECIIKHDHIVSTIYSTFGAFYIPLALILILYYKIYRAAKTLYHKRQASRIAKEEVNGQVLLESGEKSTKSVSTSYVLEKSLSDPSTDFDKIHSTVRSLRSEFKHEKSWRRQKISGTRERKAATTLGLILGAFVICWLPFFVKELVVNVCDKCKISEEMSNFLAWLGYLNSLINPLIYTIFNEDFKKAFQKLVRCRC
Nature of the assay: Radioligand binding, 5HT1F receptor ([3H]-serotonin). The settings on record: for Ki: Table 7, read-out: h5HT1F Ki; for selectivity ratio h5HT1F: Table 8, Ki h5HT1F divided by Ki hGAL3. Here is the method: Human 5HT1B, 5HT1D, 5HT1E, 5HT1F, and 5HT7 Receptors: The cell lysates of LM(tk-) clonal cell line stably transfected with the genes encoding each of these 5HT receptor-subtypes were prepared as described above. Cell membranes were suspended in 50mM Tris-HCl buffer (pH 7.4 at 37°C) containing 10 mM MgCl2, 0.2 mM EDTA, 10 µM pargyline, and 0.1% ascorbate. […] Nonspecific binding was determined in the presence of 10 µM serotonin. The bound radioligand was separated by filtration through GF/B filters using a cell harvester.
as §2

The target of assay [5] is T5, human α1D adrenergic receptor (Homo sapiens, UniProt P25100).
T5 construct: expressed in transfected cells
T5 sequence (P25100 1-572): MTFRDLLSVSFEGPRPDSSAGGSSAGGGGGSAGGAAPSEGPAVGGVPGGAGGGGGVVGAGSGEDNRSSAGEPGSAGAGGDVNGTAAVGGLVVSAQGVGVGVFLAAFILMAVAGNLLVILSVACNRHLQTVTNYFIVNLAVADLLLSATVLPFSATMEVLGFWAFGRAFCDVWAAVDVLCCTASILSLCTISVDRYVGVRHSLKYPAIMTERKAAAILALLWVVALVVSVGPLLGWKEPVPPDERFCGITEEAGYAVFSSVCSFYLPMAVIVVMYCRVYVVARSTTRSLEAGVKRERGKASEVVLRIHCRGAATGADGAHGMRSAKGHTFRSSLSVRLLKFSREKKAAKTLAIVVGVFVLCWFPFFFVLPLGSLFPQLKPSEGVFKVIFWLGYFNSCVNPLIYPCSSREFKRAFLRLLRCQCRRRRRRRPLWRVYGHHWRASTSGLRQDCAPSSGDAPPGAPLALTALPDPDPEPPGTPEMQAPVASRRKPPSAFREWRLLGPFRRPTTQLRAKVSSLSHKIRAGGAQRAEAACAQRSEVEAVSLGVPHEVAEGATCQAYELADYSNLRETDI
Kind of assay: Radioligand binding, α1D adrenergic receptor. The note with it: for Ki: Table 9, read-out: hα1D Ki; for selectivity ratio hα1D: Table 10, Ki hα1D divided by Ki hGAL3.
Description: as §1, §2

T1 sequence (P19020 whole entry): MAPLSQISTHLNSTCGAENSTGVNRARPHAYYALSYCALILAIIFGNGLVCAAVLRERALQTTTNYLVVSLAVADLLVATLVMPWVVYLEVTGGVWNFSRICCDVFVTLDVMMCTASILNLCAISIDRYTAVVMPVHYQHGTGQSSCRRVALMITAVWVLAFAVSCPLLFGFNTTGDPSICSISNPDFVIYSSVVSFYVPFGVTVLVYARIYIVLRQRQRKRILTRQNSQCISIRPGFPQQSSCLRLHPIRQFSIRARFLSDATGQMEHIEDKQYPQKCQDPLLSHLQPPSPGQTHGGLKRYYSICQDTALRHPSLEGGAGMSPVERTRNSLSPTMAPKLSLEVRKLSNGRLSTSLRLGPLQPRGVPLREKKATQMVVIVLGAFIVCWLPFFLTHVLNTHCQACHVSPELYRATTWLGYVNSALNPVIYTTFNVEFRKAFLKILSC

For the compound `O=C1C(=Nc2ccc(C(F)(F)F)cc2)c2ccccc2N1c1ccccc1` [Example 95, 1-PHENYL-3-[[4-(TRIFLUOROMETHYL)PHENYL]IMINO]-1,3-DIHYDRO-2H-INDOL-2-ONE], in assay [1], the Ki was determined as 0.466 µM and the “selectivity ratio rD3” value was determined as 16. Besides, in assay [2], the Ki was 28.3 µM and the “selectivity ratio h5HT1A” value is listed as over 100. In assay [3], the Ki was over 50 µM and the “selectivity ratio hα2B” value is given as over 100. In assay [4], the Ki came to 4.45 µM and the “selectivity ratio h5HT1F” value was over 100. In addition, in assay [5], the inhibition constant (Ki) was determined as 3.47 µM and the “selectivity ratio hα1D” value was over 100.
Turning to `O=C1C(=Nc2ccc(Cl)cc2)c2ccccc2N1c1ccccc1` [Example 97, 3-[(4-CHLOROPHENYL)IMINO]-1-PHENYL-1,3-DIHYDRO-2H-INDOL-2-ONE], in assay [1], the Ki is 9.72 µM and the “selectivity ratio rD3” value was over 100. For the same compound, in assay [2], the inhibitory constant (Ki) is over 50 µM and the “selectivity ratio h5HT1A” value is reported as over 100. Also, in assay [3], the Ki is over 50 µM and the “selectivity ratio hα2B” value was over 100. Also, in assay [4], the inhibition constant Ki was determined as 4.16 µM and the “selectivity ratio h5HT1F” value is on record as over 30. For the same compound, in assay [5], the Ki is 6.45 µM and the “selectivity ratio hα1D” value was over 100.
On to `O=C1C(=Nc2ccc(Br)cc2)c2ccccc2N1c1ccccc1` [Example 98, 3-[(4-BROMOPHENYL)IMINO]-1-PHENYL-1,3-DIHYDRO-2H-INDOL-2-ONE], for which, in assay [1], the Ki amounted to 0.592 µM and the “selectivity ratio rD3” value stood at 16. Besides, in assay [2], the Ki came out at 24.6 µM and the “selectivity ratio h5HT1A” value was over 100. In assay [3], the Ki is over 50 µM and the “selectivity ratio hα2B” value was over 100. Moreover, in assay [4], the Ki amounted to 3.36 µM and the “selectivity ratio h5HT1F” value is recorded as over 30. Besides, in assay [5], the Ki stood at 1.89 µM and the “selectivity ratio hα1D” value was over 30.
